Results on 44 molecules are retold here after ChEMBL document CHEMBL4396888, “Design and Synthesis of Potent, Selective Inhibitors of Protein Arginine Methyltransferase 4 against Acute Myeloid Leukemia” (J Med Chem, 2019).

Where only a bound is given, the exact number is not on record here.

The target in assay [1] is T1, Histone-arginine methyltransferase CARM1 (Homo sapiens, UniProt Q86X55).
T1 sequence (Q86X55 whole entry): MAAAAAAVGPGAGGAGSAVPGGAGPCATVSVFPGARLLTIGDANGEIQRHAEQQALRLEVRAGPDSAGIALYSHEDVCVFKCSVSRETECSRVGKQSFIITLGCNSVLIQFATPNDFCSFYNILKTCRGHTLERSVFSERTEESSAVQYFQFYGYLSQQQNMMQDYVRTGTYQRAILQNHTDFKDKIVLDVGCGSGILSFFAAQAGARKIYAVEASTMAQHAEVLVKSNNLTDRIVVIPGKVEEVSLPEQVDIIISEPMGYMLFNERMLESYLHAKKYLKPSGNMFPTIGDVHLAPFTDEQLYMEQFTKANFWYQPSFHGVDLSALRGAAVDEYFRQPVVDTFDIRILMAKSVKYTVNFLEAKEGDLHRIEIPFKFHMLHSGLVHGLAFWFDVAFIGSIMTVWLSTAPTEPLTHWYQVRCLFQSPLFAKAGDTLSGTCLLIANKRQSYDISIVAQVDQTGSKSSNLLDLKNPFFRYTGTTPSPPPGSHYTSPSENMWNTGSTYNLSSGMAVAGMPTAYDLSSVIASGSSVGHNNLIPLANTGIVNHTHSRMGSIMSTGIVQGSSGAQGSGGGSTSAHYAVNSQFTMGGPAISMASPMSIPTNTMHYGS
Kind of assay: Inhibition of PRMT4 (unknown origin) using histone H3 (21 to 44 residues) as substrate measured after 60 mins in presence of SAM by AlphaLisa assay.

Assay [2] concerns the target Protein arginine N-methyltransferase 6 (Homo sapiens, UniProt Q96LA8). As to the kind of experiment: Inhibition of PRMT6 (unknown origin) preincubated for 15 mins followed by substrate addition and measured after 60 mins by AlphaLisa assay.
Assay [3] deals with T1, Histone-arginine methyltransferase CARM1. As to the kind of experiment: Inhibition of PRMT4 (unknown origin) using biotinylated […] (1 to 24 residues) as substrate in presence of [3H]SAM by scintillation proximity assay.
Assay [4] deals with Protein arginine N-methyltransferase 8 (Homo sapiens, UniProt Q9NR22). As to the kind of experiment: Inhibition of PRMT8 (unknown origin) using biotinylated histone H4 (1 to 24 residues) as substrate in presence of [3H]SAM by scintillation proximity assay.
Protein arginine N-methyltransferase 8, sequence (Q9NR22 whole entry, the tested form may be a part): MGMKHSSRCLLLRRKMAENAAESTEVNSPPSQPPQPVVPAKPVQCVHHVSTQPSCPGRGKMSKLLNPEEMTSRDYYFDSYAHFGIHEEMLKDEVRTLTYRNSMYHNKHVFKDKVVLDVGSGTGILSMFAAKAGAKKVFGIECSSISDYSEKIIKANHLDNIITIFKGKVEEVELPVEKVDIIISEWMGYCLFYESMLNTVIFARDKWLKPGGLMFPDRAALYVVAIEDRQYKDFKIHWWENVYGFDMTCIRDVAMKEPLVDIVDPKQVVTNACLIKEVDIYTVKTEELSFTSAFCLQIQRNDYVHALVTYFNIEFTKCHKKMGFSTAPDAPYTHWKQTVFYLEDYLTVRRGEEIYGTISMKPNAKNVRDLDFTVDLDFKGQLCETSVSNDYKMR

Protein arginine N-methyltransferase 6, sequence (Q96LA8 whole entry, the tested form may be a part): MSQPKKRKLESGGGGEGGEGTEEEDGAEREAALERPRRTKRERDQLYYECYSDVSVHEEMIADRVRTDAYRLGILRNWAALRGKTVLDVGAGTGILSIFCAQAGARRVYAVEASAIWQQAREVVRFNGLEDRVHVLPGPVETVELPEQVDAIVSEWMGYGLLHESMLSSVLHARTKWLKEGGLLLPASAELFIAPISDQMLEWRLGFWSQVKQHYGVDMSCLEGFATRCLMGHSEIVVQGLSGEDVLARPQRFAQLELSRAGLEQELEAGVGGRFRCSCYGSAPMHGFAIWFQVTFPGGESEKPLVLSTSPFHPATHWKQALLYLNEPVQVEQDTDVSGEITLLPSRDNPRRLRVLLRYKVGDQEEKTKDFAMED

On to `CNCC(O)CN1CCc2ccc(Br)cc2C1` (stereo unspecified), for which, in assay [1], the IC50 is 5220 nM.

As for `CNCC(O)CN1CCc2c(cccc2Oc2ccc(C#N)cc2)C1` (stereo unspecified), the IC50 in assay [1] turned out to be 2310 nM.

As to `CNCC(O)CN1CCc2c(cccc2Oc2ccccc2)C1` (stereo unspecified), in assay [1], the IC50 worked out at 270 nM.

In the case of `CNC[C@H](O)CN1CCc2c(cccc2OCc2ccc(-c3nccs3)cc2)C1`, the IC50 in assay [1] was found to be 101 nM.

Regarding `CNCC(O)CN1CCc2c(cccc2OCc2ccc(F)cc2)C1` (stereo unspecified), the IC50 in assay [1] was determined as 228 nM.

Take `CNCC(O)CN1CCc2c(cccc2Oc2cccc(-c3nccs3)c2)C1` (stereo unspecified): the IC50 in assay [1] is 658 nM.

Take `CNCC(O)CN1CCc2ccccc2CC1` (stereo unspecified): the IC50 in assay [1] came to 8340 nM.

With `CNCC(O)CN1CCc2c(cccc2Oc2ccc(F)cc2)C1` (stereo unspecified), the IC50 in assay [1] stood at 2610 nM.

Take `CNCC(O)CN1Cc2ccccc2C1` (stereo unspecified): in assay [1], the 50% inhibitory concentration (IC50) was 2460 nM.

In the case of `CNCC(O)CN1CCc2c(cccc2NCc2ccccc2)C1` (stereo unspecified), the IC50 in assay [1] was found to be 343 nM.

With `CNCC(O)CN1CCc2c(cccc2-c2ccccc2)C1` (stereo unspecified), the half-inhibitory concentration (IC50) in assay [1] was found to be 465 nM.

As to `CNCC(O)CN1CCc2c(cccc2OCc2ccc(-c3nccs3)cc2)C1` (racemic), the IC50 in assay [1] came to 31 nM.

For `CNCC(O)CN1CCc2c(Br)cccc2C1` (stereo unspecified), the results for the IC50 in assay [2] and in assay [1] were 41.2 µM and 130 nM, respectively.

Regarding `CNCC(O)CN1CCc2c(cccc2NC(=O)c2ccccc2)C1` (stereo unspecified), the IC50 in assay [1] came out at 6120 nM.

Consider `CNCC(O)CN1CCCc2ccccc2C1` (stereo unspecified), for which the IC50 in assay [1] was 3190 nM.

Consider `CNCC(O)CN1CCc2cccc(Br)c2C1` (stereo unspecified), for which, in assay [1], the IC50 is 772 nM.

For the molecule `CNCC(O)CN1CCc2c(cccc2NC(=O)Nc2ccccc2)C1` (stereo unspecified), the IC50 in assay [1] stood at 3820 nM.

On to `CNCC(O)CN1CCc2c(cccc2OCc2ccc(-c3ccccc3)cc2)C1` (stereo unspecified), for which the IC50 in assay [1] came to 120 nM.

As to `CNCC(O)CN1CCc2c(cccc2Nc2ccccc2)C1` (stereo unspecified), the IC50 in assay [1] is 2110 nM.

Regarding `CNCC(O)CN1CCc2c(cccc2OCc2ccccc2)C1` (stereo unspecified), in assay [1], the IC50 worked out at 165 nM.

Turning to `CNCC(O)CN1CCc2ccccc2C1` (stereo unspecified), in assay [1], the IC50 amounted to 5310 nM.

As to `CC(C)Oc1ccc(-c2c[nH]cc2CN(C)CCN)cc1`, the IC50 in assay [3] and in assay [4] was 4 to 119 nM throughout.

In the case of `CNCC(O)CN1CCc2c(cccc2Oc2ccccc2F)C1` (stereo unspecified), in assay [1], the IC50 came out at 2070 nM.

For `CNCC(O)CN1CCc2c(cccc2Oc2cccc(F)c2)C1` (stereo unspecified), the IC50 in assay [1] is 2310 nM.

With `CNCC(O)CN1CCc2c(cccc2Oc2ccc(-c3nccs3)cc2)C1` (stereo unspecified), the IC50 in assay [1] is 279 nM.

Consider `CNCC(O)CN1CCc2c(cccc2OCc2ccccc2F)C1` (stereo unspecified), for which the IC50 in assay [1] worked out at 254 nM.

For the molecule `CNCC(O)CN1CCc2c(cccc2OCc2ccc(C(C)(C)C)cc2)C1` (stereo unspecified), in assay [1], the IC50 came to 1950 nM.

On to `CNCC(O)CN1CCCc2c(Br)cccc2C1` (stereo unspecified), for which the IC50 in assay [1] came to 785 nM.

On to `CNCC(O)CN1CCc2cc(OCc3ccccc3)ccc2C1` (stereo unspecified), for which the IC50 in assay [1] is 475 nM.

Turning to `CNCC(O)CN1CCc2c(cccc2C(=O)Nc2ccccc2)C1` (stereo unspecified), the IC50 in assay [1] is 7980 nM.

In the case of `CNCC(O)CN1CCOc2ccccc2C1` (stereo unspecified), the half-inhibitory concentration (IC50) in assay [1] is above 10000 nM.

Consider `CNCC(O)CN1CCc2c(cccc2C(=O)NCc2ccccc2)C1` (stereo unspecified), for which the IC50 in assay [1] is 2130 nM.

Turning to `CNCC(O)CN1CCc2c(cccc2Oc2ccc(F)c(Cl)c2)C1` (stereo unspecified), the IC50 in assay [1] is 2050 nM.

As to `CNCC(O)CN1CCc2c(cccc2Oc2cc(C)cc(C)c2)C1` (stereo unspecified), the IC50 in assay [1] is 1990 nM.

As for `CNCC(O)CN1CCc2c(cccc2OCc2cccc(F)c2)C1` (stereo unspecified), the IC50 in assay [1] came out at 530 nM.

Turning to `CNCC(O)CN1CCc2c(cccc2OCc2ccc(C#N)cc2)C1` (stereo unspecified), the IC50 in assay [1] was 305 nM.

Consider `CNCCN1CCC(OCc2ccccc2)CC1`, for which the IC50 in assay [1] was 32 nM.

As to `CNCC(O)CN1CCc2c(cccc2OCc2ccc(Cl)cc2)C1` (stereo unspecified), in assay [1], the IC50 is 37 nM.

For `CNCC(O)CN1CCc2c(cccc2Oc2cccc(N)c2)C1` (stereo unspecified), the IC50 in assay [1] stood at 3490 nM.

Take `CNCC(O)CN1CCc2c(cccc2OCc2cccc(-c3nccs3)c2)C1` (racemic): in assay [1], the IC50 is 43 nM.

As to `CNCC(O)CN1CCc2cc(Br)ccc2C1` (stereo unspecified), in assay [1], the IC50 came to 4480 nM.

As for `CNCC(O)CN1CCc2c(cccc2Oc2ccc(Cl)cc2)C1` (stereo unspecified), in assay [1], the IC50 came to 1180 nM.

As to `CNCC(O)CN1CCc2cc(Oc3ccccc3)ccc2C1` (stereo unspecified), the IC50 in assay [1] was determined as 900 nM.

Consider `CNCC(O)CN1CCc2c(cccc2NS(=O)(=O)c2ccccc2)C1` (stereo unspecified), for which the half-inhibitory concentration (IC50) in assay [1] was determined as 4260 nM.
